Values of other authors in patent US6017399A, “Method for controlling and removing solid deposits from a surface of a component of a steam generating system” (priority 1998, dated 2000).

Conditions: 25° C.

| Molecule | pKa |
| --- | --- |
| CNC [Dimethylamine] | about 10.61 |

Same assay, conditions: 25° C.; Table 4

| Molecule | pKa |
| --- | --- |
| CCNC1CCCCC1 [N-Ethylcyclohexylamine] | 12.00 |
| CC(C)CNCC(C)C [Diisobutylamine] | 10.82 |
| CNC [Dimethylamine] | 10.61 |
| CN [Monomethylamine] | 10.62 |
| CCCN(CCC)CCC [Tri-N-Propylamine] | 10.65 |
| CCCCN [Mono-N-Butylamine] | 10.61 |
| C1CCC2=NCCCN2CC1 [1,5-Diazabicyclo (5,4,0) Unde-5-ane] | 13.40 |
| NCCCCCN [1,5 Diaminopentane] | 10.915 |
| NCCCCCCCCN [1,8 Diaminooctane] | 10.937 |
| CCCCNCCCC [Di-N-Butylamine] | 11.31 |
| NCCCCCCN [1,6 Diaminohexane] | 10.93 |
| CN(C)C [Trimethylamine] | 10.71 |
| Dimethylamino-propylamine | 11.70 |

Same assay, conditions: about 250° C.

| Molecule | pKa |
| --- | --- |
| CNC [Dimethylamine] | about 6.50 |
